Assays:
HLA-DRB1*0401 = HLA-DRB1*0401 (Homo sapiens (Human), UniProt P01903+P01911, A100K/A169T/DEL228-266/F76Y/I96L/K127E/L162R/M171V/N62H/P40V/Q125Y/R42H/S133A/S149N/S66Y/V115G/V209L/W38E); test: HLA-DR4 HTRF assay; assay type: binding; settings: inhibition of loading of Alexa Fluor 647-labeled Cit-CII peptide onto HLA-DR4 (CLIP cleaved)
Method in brief: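 HLA-DRB1*04:01 construct (α/β fused to human Fc, CLIP pre-cleaved by HRV3C overnight at 4° C) at 3 nM was preincubated 45 min with compound and 1 nM anti-Fc-Tb donor, then 40 nM Alexa647-Cit-CII1236-1249 peptide added. After 90 min at 37° C, the 665/620 nm HTRF ratio gave % inhibition; IC50 by nonlinear regression.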

[1] = system: HLA-DR4 restricted mouse T cell hybridoma line (DR4.CII.36.8) with HLA-DRB1*04:01-expressing Boleth cells; test: HLA-DR4-restricted peptide-specific T cell-based assay (hybridoma assay); settings: 6 h, inhibition of IL-2 production, CII259-273 peptide presented by Boleth cells
Method in brief: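 Boleth cells (HLA-DRB1*04:01 B cell line) pre-incubated with compound 1 h at 37° C. in DMEM/1% FCS, then DR4.CII.36.8 mouse T cell hybridoma (CII259-273-specific) added for 6 h with CII259-273 peptide. Supernatant mouse IL-2 by AlphaLISA; IC50 by 4-PL fit of 8-point duplicate titrations.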

[2] = system: human peripheral blood CD4+ helper T cells; test: Pan-CD4+ T cell activation (off-target assay); assay type: cell-based; settings: anti-CD3/anti-CD28 stimulation, IL-2 production by ELISA
Method in brief: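 Human peripheral blood CD4+ T cells, with no APCs present, were stimulated with plate-bound anti-CD3 (1 μg/mL coating) plus soluble anti-CD28 (1 μg/mL) in the presence of compound or vehicle for 24 h. IL-2 in the supernatant was quantified by ELISA.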

SMILES	IC50 (HLA-DRB1*0401) [µM]	IC50 ([1]; Mus musculus, T-cell) [µM]	IC50 ([2]; Homo sapiens, T-cell, 24 h) [µM]	IC50 [1] [µM]	IC50 ([2]; 24 hrs) [µM]
CC[C@H]1CC(=O)c2ccc(O[C@H](c3ccncc3)c3ccc(C(N)=O)cc3)cc2O1 (single isomer, unassigned) [Example 41b, 4-((*S)—(((*S)-2-ethyl-4-oxochroman-7-yl)oxy)(pyridin-4-yl)methyl)benzamide]	1.1	1.5	> 15	–	–
NC(=O)c1ccc([C@H](Oc2ccc3c(c2)O[C@@H](c2ccccc2)CC3=O)c2ccncc2)cc1 (single isomer, unassigned) [Example 42a, 4-((*S)—(((*R)-4-oxo-2-phenylchroman-7-yl)oxy)(pyridin-4-yl)methyl)benzamide]	3.8	11	> 15	–	–
NC(=O)c1ccc([C@H](Oc2ccc3c(c2)O[C@H](c2ccccc2)CC3=O)c2ccncc2)cc1 (single isomer, unassigned) [Example 42b, 4-((*S)—(((*S)-4-oxo-2-phenylchroman-7-yl)oxy)(pyridin-4-yl)methyl)benzamide]	7.5	12	9.9	–	–
NC(=O)c1ccc([C@@H](Oc2ccc3c(c2)O[C@@H](c2ccccc2)CC3=O)c2ccncc2)cc1 (single isomer, unassigned) [Example 43a, 4-((*R)—(((*R)-4-oxo-2-phenylchroman-7-yl)oxy)(pyridin-4-yl)methyl)benzamide]	3.6	0.74	4.5	–	–
NC(=O)c1ccc([C@@H](Oc2ccc3c(c2)O[C@H](c2ccccc2)CC3=O)c2ccncc2)cc1 (single isomer, unassigned) [Example 43b, 4-((*R)—(((*S)-4-oxo-2-phenylchroman-7-yl)oxy)(pyridin-4-yl)methyl)benzamide]	4.9	0.63	9.9	–	–
C[C@@H]1COc2cc(O[C@H](c3ccncc3)c3ccc(C(N)=O)cc3)ccc2C1=O (single isomer, unassigned) [Example 44a, 4-((*S)—(((*R)-3-Methyl-4-oxochroman-7-yl)oxy)(pyridin-4-yl)methyl)benzamide]	1.6	1.6	> 15	–	–
C[C@@H]1COc2cc(O[C@@H](c3ccncc3)c3ccc(C(N)=O)cc3)ccc2C1=O (single isomer, unassigned) [Example 44b, 4-((*R)—(((*R)-3-Methyl-4-oxochroman-7-yl)oxy)(pyridin-4-yl)methyl)benzamide]	1.1	2.3	> 15	–	–
CC[C@@H]1COc2cc(O[C@H](c3ccncc3)c3ccc(C(N)=O)cc3)ccc2C1=O (single isomer, unassigned) [Example 45a, 4-((*S)—(((*R)-3-ethyl-4-oxochroman-7-yl)oxy)(pyridin-4-yl)methyl)benzamide]	1.1	3.4	> 15	–	–
CC[C@H]1COc2cc(O[C@H](c3ccncc3)c3ccc(C(N)=O)cc3)ccc2C1=O (single isomer, unassigned) [Example 45b, 4-((*S)—(((*S)-3-ethyl-4-oxochroman-7-yl)oxy)(pyridin-4-yl)methyl)benzamide]	1.4	10	> 15	–	–
CC[C@@H]1COc2cc(O[C@@H](c3ccncc3)c3ccc(C(N)=O)cc3)ccc2C1=O (single isomer, unassigned) [Example 46a, 4-((*R)—(((*R)-3-ethyl-4-oxochroman-7-yl)oxy)(pyridin-4-yl)methyl)benzamide]	0.97	1.5	> 15	–	–
CC[C@H]1COc2cc(O[C@@H](c3ccncc3)c3ccc(C(N)=O)cc3)ccc2C1=O (single isomer, unassigned) [Example 46b, 4-((*R)—(((*S)-3-ethyl-4-oxochroman-7-yl)oxy)(pyridin-4-yl)methyl)benzamide]	1.3	0.17	5	–	–
Cc1c(O[C@@H](c2ccncc2)c2ccc(C(N)=O)cc2)ccc2c1OCCC2=O (single isomer, unassigned) [Example 48a, (*R)-4-(((8-methyl-4-oxochroman-7-yl)oxy)(pyridin-4-yl)methyl)benzamide]	0.68	–	9.9	0.14	–
Cc1c(O[C@@H](c2ccncc2)c2ccc(C(N)=O)cc2)ccc2c1OCCC2=O (single isomer, unassigned) [Example 48b, (*S)-4-(((8-methyl-4-oxochroman-7-yl)oxy)(pyridin-4-yl)methyl)benzamide]	0.69	–	–	1.1	> 15
Cc1cc2c(cc1O[C@@H](c1ccncc1)c1ccc(C(N)=O)cc1)OCCC2=O (single isomer, unassigned) [Example 49a, (*R)-4-(((6-Methyl-4-oxochroman-7-yl)oxy)(pyridin-4-yl)methyl)benzamide]	0.57	0.2	9.9	–	–
Cc1cc2c(cc1O[C@H](c1ccncc1)c1ccc(C(N)=O)cc1)OCCC2=O (single isomer, unassigned) [Example 49b, (*S)-4-(((6-Methyl-4-oxochroman-7-yl)oxy)(pyridin-4-yl)methyl)benzamide]	1	3	15	–	–
NC(=O)c1ccc([C@@H](Oc2ccc3c(c2F)OCCC3=O)c2ccncc2)cc1 (single isomer, unassigned) [Example 50a, (*R)-4-(((8-Fluoro-4-oxochroman-7-yl)oxy)(pyridin-4-yl)methyl)benzamide]	1.9	0.24	9.9	–	–
NC(=O)c1ccc([C@H](Oc2ccc3c(c2F)OCCC3=O)c2ccncc2)cc1 (single isomer, unassigned) [Example 50b, (*S)-4-(((8-Fluoro-4-oxochroman-7-yl)oxy)(pyridin-4-yl)methyl)benzamide]	1.9	2.5	> 15	–	–
NC(=O)c1ccc([C@@H](Oc2cc(F)c3c(c2)OCCC3=O)c2ccncc2)cc1 (single isomer, unassigned) [Example 51a, (*R)-4-(((5-Fluoro-4-oxochroman-7-yl)oxy)(pyridin-4-yl)methyl)benzamide]	3.6	0.25	15	–	–
NC(=O)c1ccc([C@@H](Oc2cc3c(cc2F)C(=O)CCO3)c2ccncc2)cc1 (single isomer, unassigned) [Example 52a, (*R)-4-(((6-Fluoro-4-oxochroman-7-yl)oxy)(pyridin-4-yl)methyl)benzamide]	0.23	0.56	> 15	–	–
NC(=O)c1ccc([C@@H](Oc2ccc3c(c2-c2ccccc2)OCCC3=O)c2ccncc2)cc1 (single isomer, unassigned) [Example 53a, (*R)-4-(((4-oxo-8-phenylchroman-7-yl)oxy)(pyridin-4-yl)methyl)benzamide]	0.8	0.74	2.1	–	–
NC(=O)c1ccc([C@H](Oc2ccc3c(c2-c2ccccc2)OCCC3=O)c2ccncc2)cc1 (single isomer, unassigned) [Example 53b, (*S)-4-(((4-oxo-8-phenylchroman-7-yl)oxy)(pyridin-4-yl)methyl)benzamide]	0.6	0.45	3.2	–	–
NC(=O)c1ccc([C@@H](Oc2cc3c(cc2-c2ccccc2)C(=O)CCO3)c2ccncc2)cc1 (single isomer, unassigned) [Example 54a, (*R)-4-(((4-oxo-6-phenylchroman-7-yl)oxy)(pyridin-4-yl)methyl)benzamide]	0.63	0.078	0.52	–	–
NC(=O)c1ccc([C@H](Oc2cc3c(cc2-c2ccccc2)C(=O)CCO3)c2ccncc2)cc1 (single isomer, unassigned) [Example 54b, (*S)-4-(((4-oxo-6-phenylchroman-7-yl)oxy)(pyridin-4-yl)methyl)benzamide]	0.87	4.3	15	–	–
CC1(C)COc2cc(O[C@@H](c3ccncc3)c3ccc(C(N)=O)cc3)ccc2C1=O (single isomer, unassigned) [Example 56a, (*R)-4-(((3,3-dimethyl-4-oxochroman-7-yl)oxy)(pyridin-4-yl)methyl)benzamide]	1.4	1.7	4.6	–	–
CC1(C)COc2cc(O[C@H](c3ccncc3)c3ccc(C(N)=O)cc3)ccc2C1=O (single isomer, unassigned) [Example 56b, (*S)-4-(((3,3-dimethyl-4-oxochroman-7-yl)oxy)(pyridin-4-yl)methyl)benzamide]	1.3	6	> 15	–	–
Cc1c(O[C@@H](c2ccc(Cl)cc2)c2ccc(C(N)=O)cc2)ccc2c1OCCC2=O (single isomer, unassigned) [Example 57a, (*R)-4-((4-chlorophenyl)((8-methyl-4-oxochroman-7-yl)oxy)methyl)benzamide]	2.3	4.8	> 15	–	–

— patent US12516038B2, “Inhibitors of antigen presentation by HLA-DR” (Janssen Pharmaceutica NV, priority 2020, dated 2026)
